Literature values, collected in paper PMC10323144, “Garbage in, garbage out: how reliable training data improved a virtual screening approach against SARS-CoV-2 MPro” (Frontiers in Pharmacology, 2023).
Square brackets hold non-standard residues; d marks the D form. Peptide text beside a SMILES is read from it. * marks the point of attachment. Nle = CCCC[CH](N)C(=O)O; Cbz = O=C(OCc1ccccc1)*

Tested on: MPro
Settings: compiled from peer-reviewed sources (287 compounds) ref the 18 original articles; cited from earlier work

Structure (SMILES)	Class (MPro activity class)
CC(C)C(NC(=O)OCc1ccccc1)C(=O)NC(C=O)Cc1ccccc1 (stereo not drawn) [Calpain inhibitor III] (Cbz-Val-Phe-aldehyde; configuration not given here)	0 (compounds with IC50 > 20 μM, percentage inhibition <80% at 20 µM or 50 μM, or percentage enzyme inhibition <50% at 10 µM were labelled as INACTIVE)
CSCCC(C=O)NC(=O)C(CC(C)C)NC(=O)C(CC(C)C)NC(C)=O (stereo not drawn) [Calpain inhibitor II] (Ac-Leu-Leu-Met-aldehyde; configuration not given here)	1 (Compounds with IC50 < 10 µM or with a percentage of enzyme inhibition >50% at 10 µM were labelled as ACTIVE)
CCCCC(C=O)NC(=O)C(CC(C)C)NC(=O)C(CC(C)C)NC(C)=O (stereo not drawn) [Calpain inhibitor I] (Ac-Leu-Leu-[Nle]-aldehyde; configuration not given here)	1 (Compounds with IC50 < 10 µM or with a percentage of enzyme inhibition >50% at 10 µM were labelled as ACTIVE)
CC(C)CC(C=O)NC(=O)C(NS(=O)(=O)c1ccc(F)cc1)C(C)C (centres unmarked) [Calpain inhibitor VI]	0 (compounds with IC50 > 20 μM, percentage inhibition <80% at 20 µM or 50 μM, or percentage enzyme inhibition <50% at 10 µM were labelled as INACTIVE)
CCCC(NC(=O)C(CC(C)C)NC(=O)OCc1ccccc1)C(=O)C(=O)NCc1ccccn1 (centres unmarked) [Calpain inhibitor XII]	1 (Compounds with IC50 < 10 µM or with a percentage of enzyme inhibition >50% at 10 µM were labelled as ACTIVE)
CN(C)C(=O)COC(=O)Cc1ccc(OC(=O)c2ccc(NC(=N)N)cc2)cc1 [Camostat]	0 (compounds with IC50 > 20 μM, percentage inhibition <80% at 20 µM or 50 μM, or percentage enzyme inhibition <50% at 10 µM were labelled as INACTIVE)
CC1C=CC=CC=CC=CC=CC=CC=CC(OC2OC(C)C(O)C(N)C2O)CC(O)C(C(=O)O)C(O)CC(=O)CC(O)CC(O)CC(O)CC(=O)CCCC(=O)CC(=O)OC1C(C)CC(C)C(O)CC(=O)c1ccc(N)cc1 (centres unmarked) [Candicidin]	0 (compounds with IC50 > 20 μM, percentage inhibition <80% at 20 µM or 50 μM, or percentage enzyme inhibition <50% at 10 µM were labelled as INACTIVE)
Cn1nc(C(C)(C)C)cc1C(=O)NC(Cc1cccc(Cl)c1)C(=O)NCC#N (centres unmarked) [Cathepsin inhibitor 1]	0 (compounds with IC50 > 20 μM, percentage inhibition <80% at 20 µM or 50 μM, or percentage enzyme inhibition <50% at 10 µM were labelled as INACTIVE)
O=C(/C=C/c1ccc(O)c(O)c1)O[C@@H]1C[C@](O)(C(=O)O)C[C@@H](O)[C@H]1O [Chlorogenic acid]	0 (compounds with IC50 > 20 μM, percentage inhibition <80% at 20 µM or 50 μM, or percentage enzyme inhibition <50% at 10 µM were labelled as INACTIVE)
O=C(O)C1OC(Oc2cc(O)c3c(=O)cc(-c4ccccc4)oc3c2)C(O)C(O)C1O [Chrysin-7-O-β-D-glucoronide]	0 (compounds with IC50 > 20 μM, percentage inhibition <80% at 20 µM or 50 μM, or percentage enzyme inhibition <50% at 10 µM were labelled as INACTIVE)
O=c1cc(-c2ccccc2)oc2cc(O)cc(O)c12 [Chrysin]	0 (compounds with IC50 > 20 μM, percentage inhibition <80% at 20 µM or 50 μM, or percentage enzyme inhibition <50% at 10 µM were labelled as INACTIVE)
O=C(C=Cc1ccc(O)c(O)c1)OC1C(O)CC(O)(C(=O)O)CC1O (centres unmarked) [Cryptochlorogenic acid]	0 (compounds with IC50 > 20 μM, percentage inhibition <80% at 20 µM or 50 μM, or percentage enzyme inhibition <50% at 10 µM were labelled as INACTIVE)
CC(C)CC1CN(C(=O)CCl)CCN1Cc1cccc(Cl)c1 (centres unmarked) [DAN-LON-a5fc619e-3]	1 (Compounds with IC50 < 10 µM or with a percentage of enzyme inhibition >50% at 10 µM were labelled as ACTIVE)
O=C(CCl)N1CC2CC1CN2Cc1cccc(Cl)c1 (centres unmarked) [DAN-LON-a5fc619e-8]	1 (Compounds with IC50 < 10 µM or with a percentage of enzyme inhibition >50% at 10 µM were labelled as ACTIVE)
CC(NC(=O)Cc1cc(F)cc(F)c1)C(=O)NC(C(=O)OC(C)(C)C)c1ccccc1 (centres unmarked) [DAPT (GSI-IX)]	0 (compounds with IC50 > 20 μM, percentage inhibition <80% at 20 µM or 50 μM, or percentage enzyme inhibition <50% at 10 µM were labelled as INACTIVE)
CCNc1ncc(C#N)cc1CN1CCN(C(=O)CCl)CC1 [DAR-DIA-fb20be43-4]	1 (Compounds with IC50 < 10 µM or with a percentage of enzyme inhibition >50% at 10 µM were labelled as ACTIVE)
N#Cc1cc(CN2CCN(C(=O)CCl)CC2)c2ccccc2c1 [DAR-DIA-fb20be43-6]	1 (Compounds with IC50 < 10 µM or with a percentage of enzyme inhibition >50% at 10 µM were labelled as ACTIVE)
COc1cc(CN2CCN(C(=O)CCl)CC2)c2ccccc2c1 [DAR-DIA-fb20be43-7]	1 (Compounds with IC50 < 10 µM or with a percentage of enzyme inhibition >50% at 10 µM were labelled as ACTIVE)
CC(O)c1cc(C(=O)N[C@@H](C)Cn2ccc(-c3ccc(C#N)c(Cl)c3)n2)[nH]n1 (some centres unmarked) [DAROLUTAMIDE]	0 (compounds with IC50 > 20 μM, percentage inhibition <80% at 20 µM or 50 μM, or percentage enzyme inhibition <50% at 10 µM were labelled as INACTIVE)

Structure (SMILES)	Class (MPro activity class)
CC(NC(=O)CCl)c1cc(Cl)cc(-c2ccc(S(N)(=O)=O)cc2)c1 (centres unmarked) [DAV-CRI-14a23e73-1]	1 (Compounds with IC50 < 10 µM or with a percentage of enzyme inhibition >50% at 10 µM were labelled as ACTIVE)
O=C(CCl)Nc1nc2c(S(=O)(=O)NCCc3ccccc3)cccc2s1 [DUN-NEW-f8ce3686-23]	1 (Compounds with IC50 < 10 µM or with a percentage of enzyme inhibition >50% at 10 µM were labelled as ACTIVE)
COC(=O)N[C@H](C(=O)N1CCC[C@H]1c1nc(-c2ccc(-c3ccc(-c4c[nH]c([C@@H]5CCCN5C(=O)[C@@H](NC(=O)OC)C(C)C)n4)cc3)cc2)c[nH]1)C(C)C [Daclatasvir]	0 (compounds with IC50 > 20 μM, percentage inhibition <80% at 20 µM or 50 μM, or percentage enzyme inhibition <50% at 10 µM were labelled as INACTIVE)
CC(C)(C)OC(=O)N[C@H]1CCCCC/C=C\[C@@H]2C[C@@]2(C(=O)NS(=O)(=O)C2CC2)NC(=O)[C@@H]2C[C@@H](OC(=O)N3Cc4cccc(F)c4C3)CN2C1=O [Danoprevir]	0 (compounds with IC50 > 20 μM, percentage inhibition <80% at 20 µM or 50 μM, or percentage enzyme inhibition <50% at 10 µM were labelled as INACTIVE)
CC(C)CN(C[C@@H](O)[C@H](Cc1ccccc1)NC(=O)O[C@H]1CO[C@H]2OCC[C@H]21)S(=O)(=O)c1ccc(N)cc1 [Darunavir]	0 (compounds with IC50 > 20 μM, percentage inhibition <80% at 20 µM or 50 μM, or percentage enzyme inhibition <50% at 10 µM were labelled as INACTIVE)
CC(C)Nc1cccnc1N1CCN(C(=O)c2cc3cc(NS(C)(=O)=O)ccc3[nH]2)CC1 [Delavirdine]	0 (compounds with IC50 > 20 μM, percentage inhibition <80% at 20 µM or 50 μM, or percentage enzyme inhibition <50% at 10 µM were labelled as INACTIVE)
O=C1c2c(O)cc(O)cc2O[C@H](c2cc(O)c(O)c(O)c2)[C@H]1O [Dihydromyricetin]	1 (Compounds with IC50 < 10 µM or with a percentage of enzyme inhibition >50% at 10 µM were labelled as ACTIVE)
CC(C)CC(NC(=O)C1OC1C(=O)O)C(=O)NCCCCN=C(N)N (centres unmarked) [E-64]	0 (compounds with IC50 > 20 μM, percentage inhibition <80% at 20 µM or 50 μM, or percentage enzyme inhibition <50% at 10 µM were labelled as INACTIVE)
O=C(Cc1cccc(Cl)c1)Nc1cccnc1 [EDG-MED0da5ad92-2]	0 (compounds with IC50 > 20 μM, percentage inhibition <80% at 20 µM or 50 μM, or percentage enzyme inhibition <50% at 10 µM were labelled as INACTIVE)
Cc1ccc(NC(=O)Cc2cccc(Cl)c2)cn1 [EDG-MED0da5ad92-13]	0 (compounds with IC50 > 20 μM, percentage inhibition <80% at 20 µM or 50 μM, or percentage enzyme inhibition <50% at 10 µM were labelled as INACTIVE)
Cc1ncccc1NC(=O)Cc1cccc(Cl)c1 [EDG-MED0da5ad92-14]	0 (compounds with IC50 > 20 μM, percentage inhibition <80% at 20 µM or 50 μM, or percentage enzyme inhibition <50% at 10 µM were labelled as INACTIVE)
C#Cc1cccc(Nc2ncnc3cc(OCCOC)c(OCCOC)cc23)c1 [ERLOTINIB]	0 (compounds with IC50 > 20 μM, percentage inhibition <80% at 20 µM or 50 μM, or percentage enzyme inhibition <50% at 10 µM were labelled as INACTIVE)
COc1cc2c(cc1Cc1cccc(Cl)c1F)c(=O)c(C(=O)O)cn2[C@H](CO)C(C)C [Elvitegravir]	0 (compounds with IC50 > 20 μM, percentage inhibition <80% at 20 µM or 50 μM, or percentage enzyme inhibition <50% at 10 µM were labelled as INACTIVE)
Cc1cc(C#N)cc(C)c1Oc1nc(Nc2ccc(C#N)cc2)nc(N)c1Br [Etravirine]	0 (compounds with IC50 > 20 μM, percentage inhibition <80% at 20 µM or 50 μM, or percentage enzyme inhibition <50% at 10 µM were labelled as INACTIVE)
C[C@@H]1O[C@@H](OC[C@H]2O[C@@H](OCCc3ccc(O)c(O)c3)[C@H](O)[C@@H](O)[C@@H]2OC(=O)/C=C/c2ccc(O)c(O)c2)[C@H](O)[C@H](O)[C@H]1O [Forsythoside A]	1 (Compounds with IC50 < 10 µM or with a percentage of enzyme inhibition >50% at 10 µM were labelled as ACTIVE)
CC1OC(OCC2OC(OCCc3ccc(O)c(O)c3)C(O)C(OC(=O)C=Cc3ccc(O)c(O)c3)C2O)C(O)C(O)C1O (centres unmarked) [Forsythoside I]	1 (Compounds with IC50 < 10 µM or with a percentage of enzyme inhibition >50% at 10 µM were labelled as ACTIVE)
CO[C@@H]1[C@H](OC(=O)/C=C/C=C/C=C/C=C/C(=O)O)CC[C@]2(CO2)[C@H]1[C@@]1(C)O[C@@H]1CC=C(C)C [Fumagillin]	0 (compounds with IC50 > 20 μM, percentage inhibition <80% at 20 µM or 50 μM, or percentage enzyme inhibition <50% at 10 µM were labelled as INACTIVE)
Cc1cc(Nc2cc(CN3CCOCC3)c3nc(C)c(Cc4ccc(Cl)cc4F)n3n2)n[nH]1 [GANDOTINIB]	0 (compounds with IC50 > 20 μM, percentage inhibition <80% at 20 µM or 50 μM, or percentage enzyme inhibition <50% at 10 µM were labelled as INACTIVE)
CC(C)CC(NC(=O)OCc1ccccc1)C(=O)NC(C=O)CC1CCNC1=O (centres unmarked) [GC373]	1 (Compounds with IC50 < 10 µM or with a percentage of enzyme inhibition >50% at 10 µM were labelled as ACTIVE)
